Source: patent US20240287019A1, “T-TYPE CALCIUM CHANNEL BLOCKER” (KINKI UNIVERSITY, priority 2021, published 2024)
One block for each molecule: values may come before it.

Assays:
[1] = molecular target: T1, human Cav3.2 T-type calcium channels (Homo sapiens, UniProt O95180); assay: Whole-cell patch clamp, T channel current in HEK 293 cells forcibly expressing human Cav3.2; format: cell-based; conditions: perfusion addition method; from percentage change in T-channel current before and after addition; n=3 to 17
T1 construct: expressed in transfected cells; host or cells: HEK 293 cells
Protocol: The effect of the compound of the present invention on human Cav3.2 T-type calcium channels was evaluated by whole-cell patch clamp method. As a control (vehicle), DMSO solution was used.
Human kidney cell-derived cell line, HEK 293 cells, in which human Cav3.2 T-type calcium channels were forcibly expressed, were seeded into cell culture dishes using DMEM medium containing 10% fetal bovine serum and cultured at 37° C. under 5% CO2 conditions. In the whole-cell patch clamp method, the following solutions were used as extracellular and intracellular solutions, the holding potential is set at −80 mV, and the barium current flowing as an inward current in a potential jump from −80 mV to −20 mV was measured with a patch clamp amplifier and AD converter (Axon Instruments). In order to eliminate the influence of high-threshold activated calcium channels, the value obtained by subtracting the current at 150 ms after the start of stimulation from the peak current was used for data analysis as the T channel current (T-current). The data analysis was performed using pClamp8 (Axon Instruments).
As for test compounds, each compound dissolved in extracellular solution was added directly to the dishes (direct addition method) or added to the dishes by perfusion (perfusion addition method).
According to a similar method to the perfusion addition method of Test Example 1, the effect of each compound of the present invention on human Cav3.2 T-type channels was evaluated. As the test compounds, pimozide at each concentration of 0.01 μM, 0.1 μM, 0.3 μM, 1.0 μM and 3.0 μM, compound 5, compound 14 and compound 15 were used and the test compounds were added by perfusion.

[2] = test system: mouse intrabuccal injection pruritus models (chloroquine); assay: Mouse intrabuccal injection pruritus model, chloroquine as pruritogen; format: in vivo, mice; conditions: for Scratching bouts (counts/60 minutes) (n): mean ± standard error (n); for inhibition of the histamine-independent scratching bouts: 10 mg/kg, chloroquine, result in words
Protocol: (§1) In this test, the antipruritic effect of the present compound was studied using mouse intrabuccal injection pruritus models in which histamine or chloroquine is intra-buccally administered as a pruritogen. Compound 5 and compound 38 were used as the present compound, and saline comprising 1% DMSO and 5% Tween 80 was used as control. Compound 5 and compound 38 were dissolved into saline comprising 1% DMSO and 5% Tween 80 to adjust the concentration of each compound. Also, male ICR mice with a body weight of 23 to 40 g were used as experimental animals and the animals were freely given tap water and solid feed and was kept under 12-hour light/dark cycle at room temperature of about 24° C.
According to the method in Shimada SG & LaMotte R H (2008) Behavioral differentiation between itch and pain in mouse. Pain 139 (3): 681-687, histamine or chloroquine, which is a pruritogen, was dissolved into saline and the solution was administered into the buccal skin of each male ICR mouse and pruritus was induced to prepare mouse intrabuccal injection pruritus models. The mice were randomly divided into saline comprising 1% DMSO and 5% Tween 80 (Solvent 1)+saline (Solvent 2) administration group (control group), Solvent 1+histamine administration group, compound 5 (10 mg/kg)+histamine administration group, Solvent 1+chloroquine administration group, compound 5 (10 mg/kg)+chloroquine administration group, compound 38 (1 mg/kg)+chloroquine administration group, compound 38 (3 mg/kg)+chloroquine administration group and compound 38 (10 mg/kg)+chloroquine administration group (n=6 to 10). The mice in each group were anesthetized with isoflurane and their right cheek hairs were shaved a few days before the experiment. On the day of the experiment, the mice were placed in an acrylic observation cage (10×14×30 cm) with mirrors on all four sides and allowed to acclimate the environment for at least 30 minutes. After the acclimatization, saline in a volume of 10 μL/site, histamine in a volume of 300 μL/site or chloroquine in a volume of 100 μL/site was intradermally administered to the shaved cheeks of the mice without anesthesia, and their subsequent behavior was recorded on video for 60 minutes. Compound 5 (10 mg/kg), compound 38 (1 mg/kg, 3 mg/kg or 10 mg/kg) or Solvent 1 (10 mL/kg) was intraperitoneally administered 30 minutes before saline or the pruritogen was administered. At the later date, the video was replayed and the number of occurrences of the scratching bouts by the hind paws to the administration site (as pruritus response) was counted for 60 minutes to evaluate the antipruritic effect of the present compound.
The test results are shown in Table 5 to Table 7 and FIG. 8 to FIG. 10. Table 5 and FIG. 8 show the mean value±standard error (the total (n)) of the total counts of the scratching bouts by the hind paws to the administration site for 60 minutes after the administration in control group, Solvent 1+histamine administration group and compound 5 (10 mg/kg)+histamine administration group and the graph thereof, and Table 6 and FIG. 9 show the mean value±standard error (the total (n)) of the total counts of the scratching bouts by the hind paws to the administration site for 60 minutes after the intrabuccal administration on the right side in control group, Solvent 1+chloroquine administration group, compound 5(10 mg/kg)+chloroquine administration group and the graph thereof, and Table 7 and FIG. 10 show the mean value±standard error (the total (n)) of the total counts of the scratching bouts by the hind paws to the administration site for 60 minutes after the intrabuccal administration on the right side in control group, Solvent 1+chloroquine administration group, compound 38 (1 mg/kg)+chloroquine administration group, compound 38 (3 mg/kg)+chloroquine administration group and compound 38 (10 mg/kg)+chloroquine administration group and the graph thereof.

[3] = test system: mouse Na2S intrabuccal injection pruritus models; assay: Mouse Na2S intrabuccal injection pruritus model (scratching bouts and wipes); format: in vivo, mice
Protocol: In this test, the antipruritic and analgesic effects of the present compound was studied using mouse Na2S intrabuccal injection pruritus models. Compound 5 was used as the present invention and saline comprising 1% DMSO and 5% Tween 80 was used as vehicle.
Male ICR mice were received the intrabuccal injection of 3.8 μmol (300 μg/10 μL) of Na2S and T-type calcium channel-[…] pain was induced to prepare mouse Na2S intrabuccal injection pruritus models. 18 mice were randomly divided into vehicle+saline administration group (control group), vehicle+Na2S administration group and compound 5 (10 mg/kg)+Na2S administration group (6 mice per group). The mice in each group were anesthetized with isoflurane and their right cheek hairs were shaved the day or a few days before the experiment. On the day of the experiment, the mice were placed in an acrylic observation cage with mirrors on all four sides and allowed to acclimate the environment for at least 30 minutes. After the acclimatization, Na2S was intradermally administered to the shaved cheeks of the mice without anesthesia, and their subsequent behavior was recorded on video. Compound 5 (10 mg/kg) or vehicle (V, 10 mL/kg) was intraperitoneally administered 30 minutes before Na2S was administered. At the later date, the video was replayed and the number of occurrences of the scratching bouts by the hind paws to the administration site (as pruritus response) and the wipes (wiping) by the forepaws (as pain response) was counted for 60 minutes to evaluate the antipruritic and analgesic effects of the present compound.

[4] = test system: mouse Na2S intraplantar injection pain models; assay: Mouse Na2S intraplantar injection pain model (von Frey pain threshold); format: in vivo, mice; conditions: for Pain Threshold: mean ± standard error
Protocol: In this test, the analgesic effect of the present compound was studied using mouse Na2S intraplantar injection pain models. Compound 5 was used as the present compound, and saline comprising 1% DMSO and 5% Tween 80 was used as vehicle.
Male ICR mice were received the intraplantar injection of 10 μmol/paw/10 μL of Na2S and T-type calcium channel-dependent pain was induced to prepare mouse Na2S intraplantar injection pain models. The mice were randomly divided into the vehicle+vehicle administration group (control group), vehicle+Na2S administration group, compound 5 (1 mg/kg)+Na2S administration group, compound 5 (3 mg/kg)+Na2S administration group and compound 5 (10 mg/kg)+Na2S administration group (n=7 to 11). Vehicle (V, 10 mL/kg) or 1, 3 or 10 mg/kg of compound 5 was intraperitoneally administered 30 minutes before Na2S was injected intraplantarlly in the hind paws of the mice.
Pain thresholds were measured every 15 minutes until 60 minutes after the administration of Na2S by the von Frey method to evaluate the analgesic effect of the present compound.

[5] = test system: male ddY mice; assay: Catalepsy-inducing effect (bar test) after administration in the lateral ventricle; format: in vivo; conditions: 8 nmol in the lateral ventricle; 30-180 minutes after administration; result in words
From the text: In this test, the catalepsy-inducing effect of the present compound was studied to evaluate whether the present compound can inhibit side effects caused by the dopamine D2 receptor blockade. Compound 5 and compound 12 were used as the present compound and 2% DMSO solution was used as vehicle. Also, pimozide was used as the control drug.
16 male ddY mice were randomly divided into compound 5 administration group, compound 12 administration group, pimozide administration group and vehicle administration group (4 mice per group). The mice in each group were received the administration of 8 nmol (0.8 mM/10 μL) of compound 5, compound 12 and pimozide, and 10 μL of vehicle in the lateral ventricle. both forepaws of the mice were forced to place themselves on a horizontal iron bar (Height: 5 cm) and the time of keeping the posture (catalepsy) was measured to evaluate the presence or absence of catalepsy. The measurement was terminated when the forepaws touched the floor or when the mouse was on the bar.

[6] = test system: mouse intrabuccal injection pruritus models (histamine); assay: Mouse intrabuccal injection pruritus model, histamine as pruritogen; format: in vivo, mice
Protocol: as §1
According to the method in Shimada SG & LaMotte R H (2008) Behavioral differentiation between itch and pain in mouse. […] After the acclimatization, saline in a volume of 10 μL/site, histamine in a volume of 300 μL/site or chloroquine in a volume of 100 μL/site was intradermally administered to the shaved cheeks of the mice without anesthesia, and their subsequent behavior was recorded on video for 60 minutes. […] At the later date, the video was replayed and the number of occurrences of the scratching bouts by the hind paws to the administration site (as pruritus response) was counted for 60 minutes to evaluate the antipruritic effect of the present compound. […]

[7] = 10 mg/kg i.p. + Na2S, result in words
[8] = 10 mg/kg intraperitoneally 30 minutes before Na2S, mean ± standard error, 6 mice

T1 sequence (O95180 whole entry, the tested form may be a part): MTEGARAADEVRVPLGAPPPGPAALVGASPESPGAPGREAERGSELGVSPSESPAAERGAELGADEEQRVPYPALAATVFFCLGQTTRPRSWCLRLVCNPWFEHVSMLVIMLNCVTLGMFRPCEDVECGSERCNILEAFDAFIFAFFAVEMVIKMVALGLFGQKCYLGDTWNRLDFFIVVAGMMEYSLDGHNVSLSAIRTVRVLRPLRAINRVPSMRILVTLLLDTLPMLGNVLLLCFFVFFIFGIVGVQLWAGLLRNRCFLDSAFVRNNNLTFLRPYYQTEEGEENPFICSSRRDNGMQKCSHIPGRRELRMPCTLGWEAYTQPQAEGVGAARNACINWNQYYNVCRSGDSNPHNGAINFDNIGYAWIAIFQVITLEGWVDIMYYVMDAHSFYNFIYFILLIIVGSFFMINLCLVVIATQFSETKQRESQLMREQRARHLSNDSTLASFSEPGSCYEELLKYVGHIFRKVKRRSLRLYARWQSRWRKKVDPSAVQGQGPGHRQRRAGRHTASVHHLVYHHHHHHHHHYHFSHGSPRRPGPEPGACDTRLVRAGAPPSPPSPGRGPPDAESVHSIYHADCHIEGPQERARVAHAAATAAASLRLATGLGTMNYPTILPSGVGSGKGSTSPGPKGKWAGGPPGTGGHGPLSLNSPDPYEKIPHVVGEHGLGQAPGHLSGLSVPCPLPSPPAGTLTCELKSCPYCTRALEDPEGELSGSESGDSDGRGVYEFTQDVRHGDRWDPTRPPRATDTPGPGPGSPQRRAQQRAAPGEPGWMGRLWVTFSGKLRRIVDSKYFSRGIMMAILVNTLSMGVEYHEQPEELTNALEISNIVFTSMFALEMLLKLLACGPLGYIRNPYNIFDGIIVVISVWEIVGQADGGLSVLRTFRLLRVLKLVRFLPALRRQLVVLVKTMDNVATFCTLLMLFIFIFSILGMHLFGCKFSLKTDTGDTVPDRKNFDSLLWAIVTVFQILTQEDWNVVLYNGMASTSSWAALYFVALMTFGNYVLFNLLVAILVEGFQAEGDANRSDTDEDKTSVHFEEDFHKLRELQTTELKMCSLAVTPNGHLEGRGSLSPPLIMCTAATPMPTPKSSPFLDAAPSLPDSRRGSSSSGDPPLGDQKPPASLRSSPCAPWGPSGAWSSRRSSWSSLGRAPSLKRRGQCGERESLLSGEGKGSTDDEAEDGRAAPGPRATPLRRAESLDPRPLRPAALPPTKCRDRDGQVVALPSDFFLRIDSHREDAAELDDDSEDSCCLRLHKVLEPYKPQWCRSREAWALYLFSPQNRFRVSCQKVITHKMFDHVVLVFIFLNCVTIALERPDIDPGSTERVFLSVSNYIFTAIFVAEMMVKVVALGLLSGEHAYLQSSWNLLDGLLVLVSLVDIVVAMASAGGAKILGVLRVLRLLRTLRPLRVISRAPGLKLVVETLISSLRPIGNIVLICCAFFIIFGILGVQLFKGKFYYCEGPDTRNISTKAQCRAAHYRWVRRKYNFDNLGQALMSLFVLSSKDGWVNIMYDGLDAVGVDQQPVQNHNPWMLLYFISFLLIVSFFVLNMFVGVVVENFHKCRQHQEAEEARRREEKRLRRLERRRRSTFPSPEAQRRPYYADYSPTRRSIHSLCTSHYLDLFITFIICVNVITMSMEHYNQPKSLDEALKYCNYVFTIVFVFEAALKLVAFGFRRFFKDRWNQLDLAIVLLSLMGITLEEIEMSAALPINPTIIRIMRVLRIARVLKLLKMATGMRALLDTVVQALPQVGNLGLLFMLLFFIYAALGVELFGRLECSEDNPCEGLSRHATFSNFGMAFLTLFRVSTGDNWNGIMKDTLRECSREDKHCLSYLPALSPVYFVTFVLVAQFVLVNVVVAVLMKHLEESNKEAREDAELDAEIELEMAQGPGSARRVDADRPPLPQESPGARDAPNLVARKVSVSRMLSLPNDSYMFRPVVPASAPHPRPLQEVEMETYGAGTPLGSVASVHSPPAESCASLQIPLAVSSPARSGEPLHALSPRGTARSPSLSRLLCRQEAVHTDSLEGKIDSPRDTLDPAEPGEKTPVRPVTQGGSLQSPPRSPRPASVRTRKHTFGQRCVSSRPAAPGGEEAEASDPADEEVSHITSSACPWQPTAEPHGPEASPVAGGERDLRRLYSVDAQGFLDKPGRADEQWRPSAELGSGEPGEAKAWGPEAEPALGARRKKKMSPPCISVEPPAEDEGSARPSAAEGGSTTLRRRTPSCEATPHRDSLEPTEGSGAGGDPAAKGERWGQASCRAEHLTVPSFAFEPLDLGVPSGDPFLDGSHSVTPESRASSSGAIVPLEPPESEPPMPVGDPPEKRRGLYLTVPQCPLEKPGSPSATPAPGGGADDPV

IC50 [1]: 153 nM
SMILES: O=C(CCCc1ccccc1)N1CCC(n2c(=O)n(CCCCc3ccccc3)c3ccccc32)CC1 [Compound 15, 1-(1-(4-Phenylbutanoyl)piperidin-4-yl)-3-(4-phenylbutyl)-1H-benzo[d]imidazol-2(3H)-one]

SMILES: O=c1n(CCCCc2cccc(F)c2)c2ccccc2n1C1CCN(CCCCc2cccc(F)c2)CC1 [Compound 38, 1-(4-(3-Fluorophenyl)butyl)-3-(1-(4-(3-fluorophenyl)butyl)piperidin-4-yl)-1H-benzo[d]imidazol-2(3H)-one]
Scratching bouts (counts/60 minutes) (n) ([2]; 1 mg/kg i.p. 30 minutes before chloroquine, Table 7): 73.0 ± 10.5 (6) counts/60 minutes | Scratching bouts (counts/60 minutes) (n) ([2]; 3 mg/kg i.p. 30 minutes before chloroquine, Table 7): 50.7 ± 9.7 (6) counts/60 minutes | Scratching bouts (counts/60 minutes) (n) ([2]; 10 mg/kg i.p. 30 minutes before chloroquine, Table 7): 28.8 ± 10.5 (8) counts/60 minutes | inhibition of the histamine-independent scratching bouts [2]: strongly inhibited

SMILES: O=c1[nH]c2ccccc2n1C1CCN(CCCC(c2ccc(F)cc2)c2ccc(F)cc2)CC1 [Pimozide, 1-{1-[4,4-Bis(4-fluorophenyl)butyl]piperidin-4-yl}-1,3-dihydro-2H-benzimidazol-2-one, reference compound]
IC50 [1]: 157 nM

SMILES: O=c1n(CCCCc2ccccc2)c2ccccc2n1C1CCN(CCCc2ccccc2)CC1 [Compound 14, 1-(4-Phenylbutyl)-3-(1-(3-phenylpropyl)piperidin-4-yl)-1H-benzo[d]imidazol-2(3H)-one]
IC50 [1]: 337 nM

SMILES: O=c1n(CCCCc2ccccc2)c2ccccc2n1C1CCN(CCCCc2ccccc2)CC1 [Compound 5, 1-(4-phenylbutyl)-3-(1-(4-phenylbutyl)piperidin-4-yl)-1H-benzo[d]imidazol-2(3H)-one]
inhibition of pain [3, 7]: significantly inhibited | inhibition of pruritus [3, 7]: significantly inhibited | Scratching bouts (counts/60 minutes) [3, 8]: 36.2 ± 9.5 counts/60 minutes | Wipes (counts/60 minutes) [3, 8]: 30.7 ± 4.0 counts/60 minutes | IC50 [1]: 461 nM | Scratching bouts (counts/60 minutes) (n) ([2]; 10 mg/kg i.p. 30 minutes before chloroquine, Table 6): 24.9 ± 5.5 (10) counts/60 minutes | inhibition of the histamine-independent scratching bouts [2]: strongly inhibited | Pain Threshold ([4]; 1 mg/kg i.p. + Na2S, 15 minutes after administration): 0.317 ± 0.082 g | Pain Threshold ([4]; 1 mg/kg i.p. + Na2S, 30 minutes after administration): 0.296 ± 0.078 g | Pain Threshold ([4]; 3 mg/kg i.p. + Na2S, 15 minutes after administration): 0.347 ± 0.079 g | Pain Threshold ([4]; 3 mg/kg i.p. + Na2S, 30 minutes after administration): 0.417 ± 0.064 g | Pain Threshold ([4]; 10 mg/kg i.p. + Na2S, 15 minutes after administration): 0.514 ± 0.054 g | Pain Threshold ([4]; 10 mg/kg i.p. + Na2S, 30 minutes after administration): 0.604 ± 0.049 g | inhibition of pain ([4]; compound 5 administration group + Na2S, result in words): pain was inhibited | catalepsy (keeping time of posture) [5]: catalepsy was induced | Scratching bouts (counts/60 minutes) (n) ([6]; 10 mg/kg i.p. 30 minutes before histamine, mean ± standard error (n)): 13.3 ± 5.0 (7) counts/60 minutes | inhibition of the histamine-dependent scratching bouts ([6]; 10 mg/kg, result in words): strongly inhibited
